Experimental findings from patent US11999728B2, “Estrogen receptor modulators” (Recurium IP Holdings, LLC, priority 2020, dated 2024) are described below.

The term IC50 denotes the concentration that gives 50% inhibition. Higher therefore signals a need for much substance.

The test concerns MCF7. As to the kind of experiment: Breast Cancer Cell Proliferation Assay (MCF-7), Cell Titer-Glo. To be noted: Homo sapiens, MCF7, 120 h, MCF7 cells, 5 days of compound exposure. The class given is cell-based. The protocol: Breast Cancer Cell Proliferation Assay (MCF-7)
MCF7 was expanded and maintained in the medium (Phenol red free DMEM/F12 (Hyclone SH30272.01) NEAA (Gibco11140-050) Na-pyruvate (Gibco 11360-070) and Re-stripped Charcoal stripped FBS (Gemini 100-119)). The cells were adjusted to a concentration of 3,000 cells per mL in the above media, and the cells were incubated (37° C., 5% CO2). The following day a 10-point, serial dilution of compounds was added to the cells at a final concentration ranging from 10-0.000005 μM for test compounds (17β-estradiol was used as a control). Additional cells were plated in 30 wells to serve as the day 1 (pretreatment) comparison. After 5 days of compound exposure, Cell Titer-Glo reagent was added to the cells and the relative luminescence units (RLUs) of each well was determined. Cell Titer-Glo was also added to 32 μL of medium without cells to obtain a background value. The plates were allowed to incubate at room temperature for 10 minutes to stabilize luminescent signal and the luminescence signal was recorded with EnSpire. The relative increase in cell number of each sample is determined as follows: (RLU sample-RLU background/RLU estrogen only treated cells-RLU background)×100=% inhibition.
(Cellular ATP, detected with luciferase, serves as a proxy for viable cell number.)
Compound `C[C@@H]1Cc2c([nH]c3ccccc23)[C@@H](c2c(F)cc(NC3CN(CCCF)C3)cc2F)N1C12CC(C(N)=O)(C1)C2` (single isomer, unassigned) [Compound 76] registered an IC50 of 25 to 250 nM.

Turning to `C[C@@H]1Cc2c([nH]c3ccccc23)[C@@H](c2ccc(O[C@@H]3CCN(CCCF)C3)cn2)N1C12CC(C1)C2` (single isomer, unassigned) [Compound 11], the IC50 is no less than 250 nM.

`C[C@H]1Cc2c([nH]c3ccccc23)[C@H](c2c(F)cc(NC3CN(CCCF)C3)cc2F)N1C12CC(C(N)=O)(C1)C2` (single isomer, unassigned) [Compound 77] registered an IC50 of no less than 250 nM.

On to `C[C@@H]1Cc2c([nH]c3ccccc23)[C@@H](c2ccc(O[C@H]3CCN(CCCF)C3)cc2)N1C12CC(C1)C2` (single isomer, unassigned) [Compound 8], for which the IC50 was no more than 25 nM.

In turn, `C#CCN1CC(Nc2ccc([C@@H]3c4[nH]c5ccccc5c4C[C@@H](C)N3C34CC(C3)C4)cc2)C1` [Compound 65, N-(4-((1R,3R)-2-(bicyclo[1.1.1]pentan-1-yl)-3-methyl-2,3,4,9-tetrahydro-1H-pyrido[3,4-b]indol-1-yl)phenyl)-1-(prop-2-yn-1-yl)azetidin-3-amine] had an IC50 of no more than 25 nM.

The compound `COc1cc(NC2CN(CCCF)C2)cc(F)c1[C@@H]1c2[nH]c3ccccc3c2C[C@@H](C)N1C12CC(C1)C2` [Compound 92, N-(4-((1R,3R)-2-(bicyclo[1.1.1]pentan-1-yl)-3-methyl-2,3,4,9-tetrahydro-1H-pyrido[3,4-b]indol-1-yl)-3-fluoro-5-methoxyphenyl)-1-(3-fluoropropyl)azetidin-3-amine] had an IC50 of no more than 25 nM.

In the case of `C[C@H]1Cc2c([nH]c3ccccc23)[C@H](c2c(F)cc(N[C@H]3CCN(CCCF)C3)cc2F)N1C12CC(CO)(C1)C2` (single isomer, unassigned) [Compound 71], the IC50 is no more than 25 nM.

In the case of `C[C@@H]1Cc2c([nH]c3ccccc23)[C@@H](c2ccc(O[C@@H]3CCN(CCCF)C3)cc2)N1C12CC(C1)C2` (single isomer, unassigned) [Compound 7], the IC50 is 25 to 250 nM.

The compound `CCCN1C[C@@H](F)[C@H](Nc2ccc([C@@H]3c4[nH]c5ccccc5c4C[C@@H](C)N3C34CC(C3)C4)cc2)C1` [Compound 87, (3R,4R)—N-(4-((1R,3R)-2-(bicyclo[1.1.1]pentan-1-yl)-3-methyl-2,3,4,9-tetrahydro-1H-pyrido[3,4-b]indol-1-yl)phenyl)-4-fluoro-1-propylpyrrolidin-3-amine] registered an IC50 of no more than 25 nM.

`C[C@H]1Cc2c([nH]c3ccccc23)[C@H](c2c(F)cc(O[C@H]3CCN(CCCF)C3)cc2F)N1C12CC(C(N)=O)(C1)C2` (single isomer, unassigned) [Compound 32]: the IC50 was no less than 250 nM.

Compound `CCCN1CC(Oc2ccc([C@H]3c4[nH]c5ccccc5c4C[C@H](C)N3C34CC(CO)(C3)C4)cc2)C1` (single isomer, unassigned) [Compound 53] displayed an IC50 of 25 to 250 nM.

As to `C[C@@H]1Cc2c([nH]c3ccccc23)[C@@H](c2ccc(N[C@H]3CCN(CCCF)C3)nc2)N1C12CC(C1)C2` [Compound 20, 5-((1R,3R)-2-(bicyclo[1.1.1]pentan-1-yl)-3-methyl-2,3,4,9-tetrahydro-1H-pyrido[3,4-b]indol-1-yl)-N—((S)-1-(3-fluoropropyl)pyrrolidin-3-yl)pyridin-2-amine], the IC50 was no more than 25 nM.

The compound `C[C@@H]1Cc2c([nH]c3ccccc23)[C@@H](c2ncc(OC3CN(CCCF)C3)cc2F)N1C12CC(C1)C2` [Compound 14, (1S,3R)-2-(bicyclo[1.1.1]pentan-1-yl)-1-(3-fluoro-5-((1-(3-fluoropropyl)azetidin-3-yl)oxy)pyridin-2-yl)-3-methyl-2,3,4,9-tetrahydro-1H-pyrido[3,4-b]indole] had an IC50 of no more than 25 nM.

With `CCCN1C[C@H](F)[C@H](Nc2ccc([C@@H]3c4[nH]c5ccccc5c4C[C@@H](C)N3C34CC(C3)C4)cc2)C1` (single isomer, unassigned) [Compound 85], the IC50 was no more than 25 nM.

`COc1cc(NC2CN(CCCF)C2)cnc1[C@@H]1c2[nH]c3ccccc3c2C[C@@H](C)N1C12CC(C1)C2` [Compound 94, 6-((1S,3R)-2-(bicyclo[1.1.1]pentan-1-yl)-3-methyl-2,3,4,9-tetrahydro-1H-pyrido[3,4-b]indol-1-yl)-N-(1-(3-fluoropropyl)azetidin-3-yl)-5-methoxypyridin-3-amine]: the IC50 is no less than 250 nM.

In the case of `C[C@H]1Cc2c([nH]c3ccccc23)[C@H](c2c(F)cc(O[C@H]3CCN(CCCF)C3)cc2F)N1C12CC(C#N)(C1)C2` (single isomer, unassigned) [Compound 90], the IC50 was no less than 250 nM.

Regarding `C[C@@H]1Cc2c([nH]c3ccccc23)[C@@H](c2c(F)cc(O[C@@H]3CCN(CCCF)C3)cc2F)N1C12CC(C(N)=O)(C1)C2` (single isomer, unassigned) [Compound 34], the IC50 was 25 to 250 nM.

As to `C[C@@H]1Cc2c([nH]c3ccccc23)[C@@H](c2ccc(OC3CN(C4CC4)C3)cc2)N1C12CC(C1)C2` [Compound 47, (1R,3R)-2-(bicyclo[1.1.1]pentan-1-yl)-1-(4-((1-cyclopropylazetidin-3-yl)oxy)phenyl)-3-methyl-2,3,4,9-tetrahydro-1H-pyrido[3,4-b]indole], the IC50 is no more than 25 nM.

Take `C[C@@H]1Cc2c([nH]c3ccccc23)[C@@H](c2ccc(OCCN3CC(CF)C3)cc2)N1C12CC(C1)C2` [Compound 24, (1R,3R)-2-(bicyclo[1.1.1]pentan-1-yl)-1-(4-(2-(3-(fluoromethyl)azetidin-1-yl)ethoxy)phenyl)-3-methyl-2,3,4,9-tetrahydro-1H-pyrido[3,4-b]indole]: the IC50 is no more than 25 nM.

Compound `C[C@H]1Cc2c([nH]c3ccccc23)[C@H](c2ccc(OC3CN(CCCF)C3)cc2)N1C12CC(CO)(C1)C2` (single isomer, unassigned) [Compound 51] came in with an IC50 of 25 to 250 nM.

`CCCN1C[C@@H](F)[C@@H](Nc2ccc([C@@H]3c4[nH]c5ccccc5c4C[C@@H](C)N3C34CC(C3)C4)cc2)C1` (single isomer, unassigned) [Compound 86]: the IC50 was 25 to 250 nM.

For `C[C@@H]1Cc2c([nH]c3ccccc23)[C@@H](c2ccc(NCCN3CCC(F)C3)nc2)N1C12CC(C1)C2` (stereo partly drawn) [Compound 28, 5-((1R,3R)-2-(bicyclo[1.1.1]pentan-1-yl)-3-methyl-2,3,4,9-tetrahydro-1H-pyrido[3,4-b]indol-1-yl)-N-(2-(3-fluoropyrrolidin-1-yl)ethyl)pyridin-2-amine], the IC50 is no less than 250 nM.

`CCCN1CC(Oc2ccc([C@@H]3c4[nH]c5ccccc5c4C[C@@H](C)N3C34CC(CO)(C3)C4)cc2)C1` (single isomer, unassigned) [Compound 52]: the IC50 is no more than 25 nM.

With `C[C@@H]1Cc2c([nH]c3ccccc23)[C@@H](c2ccc(N[C@@H]3CN(CCCF)C[C@@H]3O)cc2)N1C12CC(C1)C2` [Compound 78, (3S,4R)-4-((4-((1R,3R)-2-(bicyclo[1.1.1]pentan-1-yl)-3-methyl-2,3,4,9-tetrahydro-1H-pyrido[3,4-b]indol-1-yl)phenyl)amino)-1-(3-fluoropropyl)pyrrolidin-3-ol], the IC50 was no more than 25 nM.

Consider `C[C@@H]1Cc2c([nH]c3ccccc23)[C@@H](c2c(F)cc(O[C@H]3CCN(CCCF)C3)cc2F)N1C12CC(C#N)(C1)C2` (single isomer, unassigned) [Compound 36], for which the IC50 was no less than 250 nM.

`C=CCN1CC(Nc2ccc([C@@H]3c4[nH]c5ccccc5c4C[C@@H](C)N3C34CC(C3)C4)cc2)C1` [Compound 64, 1-allyl-N-(4-((1R,3R)-2-(bicyclo[1.1.1]pentan-1-yl)-3-methyl-2,3,4,9-tetrahydro-1H-pyrido[3,4-b]indol-1-yl)phenyl)azetidin-3-amine] gave an IC50 of no more than 25 nM.

`C[C@@H]1Cc2c([nH]c3ccccc23)[C@@H](c2ccc(OC3CN(CCCF)C3)cc2)N1C12CC(C1)C2` [Compound 38, (1R,3R)-2-(bicyclo[1.1.1]pentan-1-yl)-1-(4-((1-(3-fluoropropyl)azetidin-3-yl)oxy)phenyl)-3-methyl-2,3,4,9-tetrahydro-1H-pyrido[3,4-b]indole] displayed an IC50 of no more than 25 nM.

On to `C[C@@H]1Cc2c([nH]c3ccccc23)[C@@H](c2c(F)cc(O[C@H]3CCN(CCCF)C3)cc2F)N1C12CC(C(N)=O)(C1)C2` (single isomer, unassigned) [Compound 35], for which the IC50 is no more than 25 nM.

As to `C[C@@H]1Cc2c([nH]c3ccccc23)[C@@H](c2cnc(NC3CN(CCCF)C3)nc2)N1C12CC(C1)C2` [Compound 57, 5-((1R,3R)-2-(bicyclo[1.1.1]pentan-1-yl)-3-methyl-2,3,4,9-tetrahydro-1H-pyrido[3,4-b]indol-1-yl)-N-(1-(3-fluoropropyl)azetidin-3-yl)pyrimidin-2-amine], the IC50 is 25 to 250 nM.

Take `C[C@@H]1Cc2c([nH]c3ccccc23)[C@@H](c2c(F)cc(OCCN3CCCC3)cc2F)N1C12CC(C1)C2` [Compound 26, (1R,3R)-2-(bicyclo[1.1.1]pentan-1-yl)-1-(2,6-difluoro-4-(2-(pyrrolidin-1-yl)ethoxy)phenyl)-3-methyl-2,3,4,9-tetrahydro-1H-pyrido[3,4-b]indole]: the half-maximal inhibitory concentration (IC50) is no less than 250 nM.

Consider `C[C@@H]1Cc2c([nH]c3ccccc23)[C@@H](c2ccc(OCCN3CC(CF)C3)cc2F)N1C12CC(C1)C2` [Compound 25, (1R,3R)-2-(bicyclo[1.1.1]pentan-1-yl)-1-(2-fluoro-4-(2-(3-(fluoromethyl)azetidin-1-yl)ethoxy)phenyl)-3-methyl-2,3,4,9-tetrahydro-1H-pyrido[3,4-b]indole], for which the IC50 is no more than 25 nM.
